# Starred links: 1 amine or outer side, 2 acyl side, 3 side chain; linkers in the order of their positions; H or OH if unused. Positions of bridges follow the written chain, without caps; N, C: chain ends. Non-standard residues stand in square brackets, D forms with d. Residues, ends and D or L forms follow the SMILES beside them. X1 = C(=C\[*:2])/CC[*:1]; βAla = NCCC(=O)O
# How the values were obtained:
# TCF4-CTNNB1 complex = molecular target: T1, TCF4-CTNNB1 complex (Homo sapiens, UniProt P35222); experiment: Inhibition of His-tagged beta-catenin (134 to 668 residues)/CM-5 sensor chip immobilized N-terminal GST-tagged TCF4 interaction (unknown origin) preincubated with beta-catenin for 15 mins followed by TCF4 addition measured after 60 secs by SPR analysis; format: protein-complex assay
# T1 sequence (P35222 whole entry): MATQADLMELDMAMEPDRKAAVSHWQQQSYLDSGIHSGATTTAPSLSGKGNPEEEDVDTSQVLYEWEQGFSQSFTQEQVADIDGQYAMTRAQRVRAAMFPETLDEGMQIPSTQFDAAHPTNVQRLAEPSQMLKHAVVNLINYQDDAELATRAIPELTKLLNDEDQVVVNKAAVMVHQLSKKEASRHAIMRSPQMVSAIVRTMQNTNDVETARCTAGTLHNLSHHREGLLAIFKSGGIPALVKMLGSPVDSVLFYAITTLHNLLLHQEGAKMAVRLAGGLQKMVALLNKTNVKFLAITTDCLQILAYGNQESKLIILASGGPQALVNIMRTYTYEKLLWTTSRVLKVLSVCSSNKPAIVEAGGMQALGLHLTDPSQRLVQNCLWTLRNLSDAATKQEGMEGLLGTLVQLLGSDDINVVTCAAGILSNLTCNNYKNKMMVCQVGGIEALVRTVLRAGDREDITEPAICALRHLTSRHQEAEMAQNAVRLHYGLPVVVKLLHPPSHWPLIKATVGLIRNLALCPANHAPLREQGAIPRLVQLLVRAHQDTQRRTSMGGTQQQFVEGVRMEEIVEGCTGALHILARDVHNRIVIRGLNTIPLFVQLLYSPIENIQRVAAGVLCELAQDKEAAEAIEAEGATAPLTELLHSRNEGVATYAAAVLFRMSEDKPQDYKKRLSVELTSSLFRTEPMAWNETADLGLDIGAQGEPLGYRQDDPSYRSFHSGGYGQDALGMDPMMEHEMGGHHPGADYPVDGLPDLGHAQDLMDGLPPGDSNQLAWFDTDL
# T1 sequence (P15884 whole entry): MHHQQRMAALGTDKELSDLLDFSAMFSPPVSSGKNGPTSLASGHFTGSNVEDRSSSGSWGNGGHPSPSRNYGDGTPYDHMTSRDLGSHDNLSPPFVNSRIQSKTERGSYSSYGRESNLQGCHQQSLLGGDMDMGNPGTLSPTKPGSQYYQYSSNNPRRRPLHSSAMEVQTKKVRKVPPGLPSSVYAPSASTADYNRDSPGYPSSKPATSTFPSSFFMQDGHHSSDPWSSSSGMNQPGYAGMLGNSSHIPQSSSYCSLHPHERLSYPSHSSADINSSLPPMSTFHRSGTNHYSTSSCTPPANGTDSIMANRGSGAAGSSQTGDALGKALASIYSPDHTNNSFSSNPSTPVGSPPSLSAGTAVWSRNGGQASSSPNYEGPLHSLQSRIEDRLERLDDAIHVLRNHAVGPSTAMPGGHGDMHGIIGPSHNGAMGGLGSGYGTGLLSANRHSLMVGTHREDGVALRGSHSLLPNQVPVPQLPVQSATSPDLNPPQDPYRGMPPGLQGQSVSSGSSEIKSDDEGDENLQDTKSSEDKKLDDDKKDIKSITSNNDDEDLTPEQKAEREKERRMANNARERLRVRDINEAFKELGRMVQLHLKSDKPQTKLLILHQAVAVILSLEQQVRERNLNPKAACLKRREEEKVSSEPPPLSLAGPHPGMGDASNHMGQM
# [1] = Antiproliferative activity against human LNCaP-abl cells assessed as inhibition of cell proliferation incubated for 5 days by Cell Titer-Fluor assay; format: functional, cell-based; details: 120 h
# [2] = Antiproliferative activity against human LNCaP-95 cells assessed as inhibition of cell proliferation incubated for 5 days by Cell Titer-Fluor assay; format: functional, cell-based; details: LNCaP-95, 120 h
# [3] = Inhibition of Wnt reporter activity in human SW480 cells by cell based assay; format: functional
# [4] = Inhibition of Wnt reporter activity in human HeLa cells by cell based assay
compound,measurement,setting,value
CCc1ccc(OCc2nnc(SC3CCCC3=O)n2C(C)c2ccccc2)cc1 (stereo not given),IC50,TCF4-CTNNB1 complex,24 µM
COc1cc(OC)cc(N2CC(=O)N(CCCOC(C)C)CC(=O)N(C(C)c3ccc(O)cc3)CC(=O)N(C(C)c3ccc(O)cc3)CC(=O)N[C@H](C)C(=O)N(CCc3ccccc3Oc3ccccc3)CC2=O)c1 (stereo not given in full),IC50,[1],0.2 µM
same,IC50,[2],0.8 µM
CCOC(=O)C[C@@H](NC(=O)[C@@H](Cc1ccc2ccccc2c1)NC(=O)Cc1cc2cc(Cl)ccc2[nH]1)C(=O)N[C@H](CC(=O)OCC)C(=O)OC,IC50,[3],29 µM
CC(C)C[C@@H]1NC(=O)[C@H](CC(C)C)NC(=O)[C@H](CO)NC(=O)[C@H](CC(=O)O)NC(=O)[C@@H]2CCCN2C(=O)[C@@H]2CCCN2C(=O)[C@H](C(C)C)NC(=O)[C@H](CC(=O)O)NC(=O)[C@H](CC(N)=O)NC(=O)[C@H](CCCNC(=N)N)NC(=O)[C@@H]2CS/C=C/CCSC[C@H](NC1=O)C(=O)N[C@@H](Cc1ccccc1)C(=O)NCCC(=O)NCCC(=O)N[C@@H](C(C)C)C(=O)N2 (cyclo(CF[βAla][βAla]VCRNDVPPDSLL); linker 1-6 via X1),IC50,[4],8 µM
